For test [1], the target named is EGFR (mouse) (UniProt P00533). The note with it: nih3t3/neu.
For test [2], the target named is EGFR (mouse) (UniProt P00533). The conditions noted are these: nih3t3/her14.
For test [3], the target named is EGFR (mouse) (UniProt P00533). The conditions noted are these: nih3t3.

`CN(CO)N=Nc1ccc2ncnc(Nc3cccc(Br)c3)c2c1`: the IC50 (as a rule, the concentration that gives 50% inhibition) was determined as 0.09 µM with EGFR (mouse) [1] and 2.1 µM in the test with EGFR (mouse) [2].
In the same order, the values of `CNN=Nc1ccc2ncnc(Nc3cccc(Br)c3)c2c1` are 0.09 µM and 8.8 µM.
The corresponding values for `CC(=O)OCN(C)N=Nc1ccc2ncnc(Nc3cccc(Br)c3)c2c1` are 0.21 µM and 3.4 µM.
With `COc1cc2ncnc(Nc3cccc(Cl)c3)c2cc1OC.Cn1nnc2c(C(N)=O)ncn2c1=O`, the IC50 came to 39.4 µM with EGFR (mouse) [3], 1.1 µM with EGFR (mouse) [1] and 6.2 µM with EGFR (mouse) [2].
Regarding `CNN=Nc1ccc2ncnc(Nc3cccc(C)c3)c2c1`, the figures for the IC50 in the test with EGFR (mouse) [1] and with EGFR (mouse) [2] were 16.5 µM and 28.9 µM, respectively.
Turning to `COc1cc2ncnc(Nc3cccc(Cl)c3)c2cc1OC`, the IC50 was 4 µM with EGFR (mouse) [1] and 9.8 µM in the test with EGFR (mouse) [2].
Turning to `Nc1ccc2ncnc(Nc3cccc(Br)c3)c2c1`, the results for the IC50 in the test with EGFR (mouse) [1] and in the test with EGFR (mouse) [2] were 0.42 µM and 10.4 µM, respectively.
With `Cn1nnc2c(C(N)=O)ncn2c1=O`, the IC50 was 214 µM with EGFR (mouse) [3], 210 µM with EGFR (mouse) [1] and 207 µM with EGFR (mouse) [2].
As to `CC(=O)N(C)N=Nc1ccc2ncnc(Nc3cccc(C)c3)c2c1`, the figures for the IC50 in the test with EGFR (mouse) [1] and with EGFR (mouse) [2] were 60.6 µM and 149 µM, respectively.

The values above are taken from the Kinase Knowledgebase extract (Sharma et al. 2016).
